Patent US20110071124A1, “Compounds that Inhibit Production of sAPPB and AB and Uses Thereof” (The Trustees of Columbia University in the City of New York, priority 2008, published 2011)

Tests used:
[1] = target: T1, purified recombinant β-secretase (BACE1) (Homo sapiens, UniProt P56817); test: BACE1 FRET enzymatic assay (Invitrogen); type: biochemical; details: for dose-dependent inhibition of β-secretase: 3 concentrations (0.1, 1, and 10 μM); for IC50: 12 doses, read-out: enzymatic IC50 (FRET-based BACE1 assay)
T1 construct: purchased Invitrogen
Description: FIG. 10. 4 compounds reduce BACE1 activity in an enzymatic assay. To further classify the small molecule hits, a FRET-based BACE1 enzymatic assay (Invitrogen) was used to identify potential direct BACE1 inhibitors.
In other non-limiting embodiments, the effective amount of at least one compound of Formulas I-VII, and/or a compound depicted in FIG. 19, may be correlated with the compound's ability to inhibit the enzymatic activity of a BACE1 enzyme. The compound's BACE1 inhibitory effect may be assayed, for example, through use of a BACE1 FRET Assay kit (Invitrogen Corp., Carlsbad, Calif., U.S.A.), wherein the fluorescence resonance energy transfer (FRET)-based assay measures the cleavage by purified recombinant β-secretase of a peptide substrate corresponding to the BACE1 cleavage site of Swedish mutant APP. In such an assay, a greater reduction in fluorescence in the reaction mixture following incubation with a compound of the invention compared to a control cell line not contacted with the compound is correlative with the compound's therapeutic efficacy.
Because the cell-based BACE1 assay has the potential to uncover direct as well as indirect inhibitors of β-secretase, a commercial BACE1 enzymatic assay was employed to classify the small molecule hits. The BACE1 FRET Assay kit was purchased from Invitrogen and used according to the manufacturer's protocol. This fluorescence resonance energy transfer (FRET)-based assay measures the cleavage by purified recombinant β-secretase of a peptide substrate corresponding to the BACE1 cleavage site of Swedish mutant APP. The 15 LDDN hits were first tested at 3 concentrations (0.1, 1, and 10 μM) to determine if there is a dose-dependent inhibition of β-secretase.

[2] = tested on: sAPPβ (BACE1 cleavage of SEAP-APPwt) in SY5Y-BACEGFP-SEAPAPPwt cells; test: cell-based BACE1 assay (sAPPβ modified ELISA); details: for IC50: 12 concentrations 0.1 nM to 30 μM, 96-well format (FIG. 8), read-out: cell-based IC50 (sAPPβ), 12-point dose-response
Experimental: FIG. 1. An sAPPβ assay utilized to identify inhibitors of BACE1. The assay utilizes SY5Y cells stably overexpressing BACE-GFP and SEAP-APPwt. Cells are incubated with a candidate compound for 6 hours prior to harvesting media. BACE1-mediated cleavage of APP results in the release of sAPPβ into the media. α-secretase, a competing enzyme that is non-amyloidogenic, also cleaves APP to release […]. Using an sAPPβ-specific antibody (sβwt), SEAP-sAPPβ is specifically captured in a modified ELISA assay. Detection is achieved by addition of the fluorescent alkaline phosphatase substrate, 4-methylumbelliferyl phosphate (4-MUP).
FIG. 13. […] Compounds were tested in SY5Y-BACEGFP-SEAPAPPwt cells using the cell-based BACE1 assay. Select compounds were also investigated for Aβ-lowering effect using a commercial Aβ ELISA kit (BioSource). All compounds were tested at 8 concentrations (30, 10, 3, 1, 0.3, 0.1, 0.03, and 0.01 μM), and data points were analyzed with Origin software and fitted using a logistic model for IC50 determination.
As described in the Examples below, and depicted in FIG. 1, an sAPPβ ELISA assay may comprise cells, for example, SY5Y cells, transfected with a BACE1 reporter construct, such as a GFP-tagged BACE1 (BACE-GFP), and a wild type APP reporter construct, such as a secreted alkaline phosphatase (SEAP)-tagged wild type APP (SEAP-APPwt). BACE1 cleavage of the reporter-tagged APP (e.g. SEAP-APPwt) may result in secretion into the media of SEAP-tagged sAPPβ, which may be collected and specifically captured using an sAPPβ cleavage site-specific antibody (e.g. stβwt). Following washing, a substrate may be used, for example, the fluorescent alkaline phosphatase substrate 4-methylumbelliferyl phosphate (4-MUP), to detect the captured SEAP-sAPPβ.
A cell-based modified ELISA assay for measuring sAPPβ, the secreted ectodomain of β-amyloid precursor protein (APP) following β-secretase (BACE1) cleavage, was used to identify a class of compounds that interfered with the first step of sAPPβ generation. This assay has been described in International Application PCT/US2007/015938 (Published as International Publication No. WO 08/008463), which is herein incorporated in its entirety for all purposes.
The SY5Y-BACEGFP-SEAPAPPwt cell based assay was developed to discover novel small molecule modulators of BACE1 activity. SY5Y cells were stably transfected with GFP-tagged BACE1 (BACE-GFP) and secreted alkaline phosphatase (SEAP)-tagged wildtype APP (SEAP-APPwt). BACE1 cleavage of SEAP-APPwt results in secretion into the media of SEAP-tagged sAPPβ, which is collected and specifically captured using an sAPP0 cleavage site-specific antibody (sβwt). After washing, the fluorescent alkaline phosphatase substrate 4-methylumbelliferyl phosphate (4-MUP) is used to detect the captured SEAP-sAPPβ (FIG. 1).
The 15 LDDN compounds selected based on their 3-point dose-response profile were tested at 12 concentrations (ranging from 0.1 nM to 30 μM) in the cell-based BACE1 assay. The assay was conducted in 96-well format to maximize the Z′ factor. Compounds were characterized in duplicate cell plates, each containing 12 doses of compound in triplicate. Cell viability was measured at 6 and 24 hours using Promega's Cell Titer-Glo kit according to the manufacturer's protocol. The dose-response curves for sAPPβ reduction were plotted using Origin software and fitted using a logistic model for IC50 determination.
27 structural analogs of LDN-0057228 were synthesized and tested using the cell-based BACE1 assay in SY5Y-BACEGFP-SEAPAPPwt cells (FIG. 13). 4 analogs, in addition to the parent compound, were also assessed for Aβ40 lowering activity using a commercial Aβ kit (BioSource). Because LDN-0057228 resembles CNS monoamine transporter inhibitors, this analog series was given the designation “CNS.” LDN-0057228 gave an unexpectedly low potency (IC50˜20 μM for both sAPPβ and Aβ40 reduction) compared to the ˜7 μM potency obtained using the same compound in FIG. 8.

[3] = fluorescent readout interference: BACE1 substrate standard (cleaved peptide) without BACE1 enzyme; details: highest of 12 concentrations
Experimental: Because the enzymatic assay is performed with compound in the reaction mixture (in contrast to the cell-based BACE1 assay, where the compound is washed away after antibody-mediated specific capture of sAPPβ), it is conceivable that the compound itself may interfere with the fluorescent readout of the enzymatic BACE1 assay. To explore this possibility, BACE1 substrate standard (cleaved peptide, supplied in the assay kit) was incubated with 12 concentrations of LDN-0040630, LDN-0089308, LDN-0096529, and LDN-0091841 in the absence of BACE1 enzyme.

[4] = tested on: SY5Y-BACEGFP-SEAPAPPwt cells; details: tagged-triazine hits, 10 μM
Experimental: Of the 147 hits selected during the primary screen, 139 were retested in a 3-point dose-response (10, 2, 0.2 μM) confirmatory screen. BACE1 assay was performed as described, and cell viability was determined by Cell Titer AQeous One cell proliferation assay (Promega). Representative data from four compounds are shown. Data points represent mean±s.d. of four determinations.
The primary screen for the nearly 3,000-compound tagged-triazine library was conducted in 96-well format by hand. Compounds were supplied in powder form in 96-well polypropylene plates. The compounds were first dissolved in DMSO to generate 10 mM stock plates, then stamped onto new polypropylene plates to make 1 mM working stock solution. For assay, 1 mM working stock solution was diluted 1:100 into cell culture media for a final concentration of 10 μM. […] Negative (DMSO) and positive (BACE inhibitor IV at 10 μM) controls were included on every screening plate in triplicate for quality control and calculation of Z′ factors.
The 144 hits from the primary screen were rescreened in triplicate at 10 μM to confirm the activity and to assess cytotoxicity.
Of the 147 hits from the primary screen, 139 were retested for 3-point dose-response at 10, 2, and 0.2 μM concentrations in quadruplicate. […] The compounds were simultaneously evaluated for cytotoxicity using the Cell Titer AQueous One cell proliferation assay (Promega). […]

[5] = 10 μM, triplicate rescreen of tagged-triazine hits

T1 sequence (P56817 46-501): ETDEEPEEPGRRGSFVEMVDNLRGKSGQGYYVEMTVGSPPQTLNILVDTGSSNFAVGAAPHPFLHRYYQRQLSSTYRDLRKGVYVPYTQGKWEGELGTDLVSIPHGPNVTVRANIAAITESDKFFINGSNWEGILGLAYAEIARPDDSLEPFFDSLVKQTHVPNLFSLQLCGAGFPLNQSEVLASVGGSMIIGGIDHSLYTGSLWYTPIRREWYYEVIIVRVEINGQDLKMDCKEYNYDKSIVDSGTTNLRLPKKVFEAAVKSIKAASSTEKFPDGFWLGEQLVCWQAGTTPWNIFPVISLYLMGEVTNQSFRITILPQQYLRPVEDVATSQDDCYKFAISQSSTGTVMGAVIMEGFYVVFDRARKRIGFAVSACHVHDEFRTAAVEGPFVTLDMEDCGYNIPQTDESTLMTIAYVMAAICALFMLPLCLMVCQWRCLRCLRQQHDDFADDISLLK

| Structure (SMILES) | dose-dependent inhibition of β-secretase [1] | IC50 [1] | IC50 [2] | maximal inhibition of the fluorescence signal in the absence of BACE1 enzyme [3] | inhibition of sAPPβ [2, 5] | effect on cell viability [4] | increase in sAPPβ [2, 5] |
| --- | --- | --- | --- | --- | --- | --- | --- |
| Oc1cc(-c2ccccc2)nn1-c1nc2ccccc2[nH]1 [LDN-0089308] | exhibited a dose-dependent effect | 2140 nM | 3050 nM | 25% |  |  |  |
| NCCOCCOCCNc1nc(N2CCCC2)nc(N2CCN(c3ccc([N+](=O)[O-])cc3)CC2)n1 [TG-CD-D7] |  |  |  |  | 43% | did not affect cell viability |  |
| COc1ccccc1C(=O)Nc1nc2ccccc2n1CCOc1ccccc1 [LDN-0091841] | exhibited a dose-dependent effect | 5150 nM | 2610 nM | 25% |  |  |  |
| NCCOCCOCCNC(=O)c1ccc(CNc2nc(NCC3CCCCC3)nc(N3CCCCC3)n2)cc1 [AM-D-E4] |  |  |  |  |  | did not affect cell viability | 36% |
